Test results from article PMC12030314, “Biomarker-Driven Pharmacokinetics and Efficacy of Polymyxin B in Critically Ill Patients with XDR-GN Pneumonia” (Pharmaceuticals, 2025).
Read-outs that look alike come from different tables or passages of the source. Where a SMILES comes first, the peptide text is derived from it. Bridges are numbered along the chain shown (N, C = ends). [ ]: non-standard residue; d: D form. The star is where a group is joined. X1 = CC[C@H](C)CCCCC(=O)*; Dab = NCC[C@H](N)C(=O)O

How the values were obtained:
plasma protein = test: Binding of PMB in plasma, rapid equilibrium dialysis; type: in vitro ADME; conditions: human, rapid equilibrium dialysis (Pierce RED), pooled patient plasma pH 7.4, 300 μL against PBS pH 7.4, 37 °C, triplicate, mean, read-out: plasma protein-binding ratio (converted)
Protocol: The plasma protein binding of PMB was determined by rapid equilibrium dialysis device purchased from Thermo Scientific™ (Pierce RED, CAS90006, Rockford, IL, USA). For each patient, three plasma samples (totaling approximately 1 ml) were pooled (pH adjusted to 7.4), and the test was performed in triplicate. For each, 300 μL was dialyzed against an equal volume of isotonic phosphate-buffered saline (pH 7.4) at 37 °C for 4 h. PMB concentrations were determined, and the extent of protein binding was calculated as 1 minus the ratio of the PMB concentration in the buffer to that in the plasma and is expressed as a percentage.

[1] = Plasma pharmacokinetics of intravenous PMB in critically ill patients (UPLC-MS/MS; noncompartmental and two-compartment analysis); type: in vivo, human; conditions: for Cmax: read-out: Css,max; for AUC(0-t): read-out: AUCss,0–24h
Protocol: The patients received a 100 mg loading dose followed by a maintenance dose of 50 mg every 12 h. PMB was administered by short-term infusions (60 min). Blood samples were collected from each patient in three stages.
Phase of first dose: Blood samples were collected at defined time points to capture PK data.
Phase of steady state: Although a steady state of PMB concentration can be achieved after 48 h of treatment, considering the special condition of critically ill patients, blood samples were collected immediately before the initiation of the seventh dose (trough) and immediately at the end of the seventh dose (peak).
During the last dose phase, blood samples were collected immediately before the initiation of the last dose, immediately at the end of the last dose, and randomly (at least eight blood samples for each person) at 1.5, 2, 2.5, 3, 5, 7, 9, 12, 15, 19, 24, 48, and 72 h after completing the infusion.
(§1) Blood and BAL samples were centrifuged for 10 min (3000 rpm) and immediately stored at −80 °C until analysis.
(§2) PMB concentrations in the samples were quantified by monitoring the total concentrations of polymyxin B1 (PB1), polymyxin B2 (PB2), polymyxin B3 (PB3), and isoleucine polymyxin B1 (I-PB1) via a validated ultraperformance liquid chromatography–tandem mass spectrometry (UPLC-MS/MS) assay. The standard substances, including PB1 (CAS P037), PB2 (CAS P037), PB3 (CAS P040), and I-PB1 (CAS P038), were purchased by TOKU-E Company (>99% pure, Bellingham, WA, USA). ACQUITY UPLC system, Quattro PremierXE triple quadrupole mass spectrometer, electrospray isonizaiton source (ESI), and Masslynx 4.1 data processing software were used in this study (Waters Company, Milford, MA, USA). An Acquity UPLC BEH C18 column (50 mm × 2.1 mm internal diameter, 1.8 μm) purchased from Waters (Milford, MA, USA) was used. The mobile phase comprised a 0.2% formic acid aqueous solution and a 0.2% formic acid acetonitrile solution, and the flow rate was 0.3 mL/min. Mass spectrometric detection was performed in positive electrospray ionization (ESI+) mode with multiple reaction monitoring (MRM). The optimized transitions were set as follows: m/z 602.7→101.0 for PB1 and I-PB1, m/z 595.7→100.9 for PB2 and PB3, and […] for the internal standard norvancomycin. Plasma and BAL supernatant was aliquoted into microcentrifuge tubes and sequentially treated with 20 μL norvancomycin or 200 μL 5% trichloroacetic acid. 1 μL plasma and 2 μL BAL of supernatant were collected separately for the detection of PMB concentrations.
Analysis of independently prepared quality control samples indicated good reproducibility (coefficients of variation ≤ 8.39%) and accuracy (measured concentrations ≤ 10.0% from target concentrations). The standard curve was linear over the range of 0.5 to 10,000 ng/mL, with precision and accuracy of less than 15%. The regression coefficient was 0.9985. The relative standard deviation values for the intra- and inter-day precision at low, middle, and high levels were all less than 6%, and the recovery rate was 83.1–85.4%.
The plasma concentration–time values for PMB were analysed via Phoenix WinNonlin 8.1. The data were explored via noncompartmental and two-compartment PK models. The principles for final model selection were a low Akaike information criterion (AIC), visual evaluation of individual plasma concentration–time profiles, and precision of parameter estimations on the basis of one sample t-test or the correlation coefficient. The following PK parameters were generated via noncompartmental and two-compartment analysis: Cmax, CL, Vd, t1/2, k, and AUC was determined via the linear trapezoidal rule. The PMB Css,avg was calculated from the Cmax and Cmin that were directly obtained from the observed peak and trough concentrations in the stable state. The simulated concentrations were obtained via compartment PK models. Factors that affect PMB PK parameters were also evaluated.

[2] = PMB concentration in epithelial lining fluid (BAL, urea dilution method); type: in vivo; conditions: human, iv, 50 mg; for Kp at 96 h: epithelial lining fluid / plasma, read-out: ELF/plasma ratio; for level at 96 h: epithelial lining fluid; for Cmax: plasma, patients with BAL samples
Protocol: BAL sample collection was possible for 15 of the patients. If the patients’ respiratory status permitted, one BAL was performed immediately after the seventh dose (on day 4 of treatment). Four 20 mL aliquots of sterile 0.9% normal saline solution were instilled, immediately aspirated, and placed on ice. The aspirate from the first 20 mL instillation was collected and discarded. The aspirates recovered from the second, third, and fourth instillations were pooled.
as §1, §2
The ELF recovery rate was calculated via the urea dilution method, as reported in previous studies. The concentration of urea was analysed with a commercial kit purchased from Beijing Solarbio Science & Technology Co., Ltd., Beijing, China (BC1535). The concentration of PMB in the ELF (ELF[PMB]) was measured by using urea as an endogenous marker of ELF dilution via the following equation: ELF[PMB] = BAL[PMB] × (blood urea/BAL[Urea]), where BAL[PMB] is the concentration of PMB in BAL and BAL[Urea] is the concentration of urea in BAL.

[3] = 27 critically ill patients, iv 100 mg loading, 50 mg q12h, noncompartmental analysis after last dose, mean
[4] = Treatment Failure (n = 5), median [IQR]
[5] = human, plasma, iv, 50 mg, Treatment Success (n = 22), median [IQR]
[6] = human, plasma, iv, 50 mg, Table 2, 27 enrolled patients, mean

CC[C@H](C)CCCCC(=O)N[C@@H](CCN)C(=O)N[C@H](C(=O)N[C@@H](CCN)C(=O)N[C@H]1CCNC(=O)[C@H]([C@@H](C)O)NC(=O)[C@H](CCN)NC(=O)[C@H](CCN)NC(=O)[C@H](CC(C)C)NC(=O)[C@@H](Cc2ccccc2)NC(=O)[C@H](CCN)NC1=O)[C@@H](C)O [PMB, polymyxin B] (X1-[Dab]T[Dab][Dab][Dab][dF]L[Dab][Dab]T; lactam 4-C)
fraction unbound at 4 h (plasma protein): 0.145
half-life (t1/2) [1, 3]: 19.56 h
volume of distribution (Vd) [1, 3]: 30.44 L
Css,avg ([1]; Table 2, 27 enrolled patients, mean): 5.1 µg/mL
Css,avg ([1]; Total (n = 27), median [IQR]): 5.2 [3.8, 5.9]
Css,max ([1]; Total (n = 27), median [IQR]): 8.7 [6.6, 10.1]
Css,avg [1, 4]: 6.6 [5.9, 7.7]
Css,max [1, 4]: 11.1 [9.9, 11.4]
Css,avg ([1]; Treatment Success (n = 22), median [IQR]): 5.0 [3.7, 5.5]
Cmax ([1]; human, plasma, iv, 50 mg, Table 2, 27 enrolled patients, iv 100 mg loading, 50 mg q12h, mean): 8.3 µg/mL
AUC(0-t) ([1]; human, plasma, iv, 50 mg, Total (n = 27), median [IQR]): 101 µg·h/mL
AUC(0-t) ([1]; human, plasma, iv, 50 mg, Treatment Failure (n = 5), median [IQR]): 64.7 µg·h/mL
AUC(0-t) [1, 5]: 112 µg·h/mL
Cmax [1, 5]: 8.7 µg/mL
Vd [1, 6]: 30.4 L
clearance [1, 6]: 26.7 mL/min
half-life [1, 6]: 19.6 h
AUC(0-t) [1, 6]: 110 µg·h/mL
Kp at 96 h ([2]; treatment failure group, median [IQR]): 0.088
Kp at 96 h ([2]; treatment success group, median [IQR]): 0.17
level at 96 h ([2]; BAL immediately after the seventh dose (day 4), urea dilution method, median and IQR, read-out: ELF concentration): 0.9 µg/mL
level at 96 h ([2]; treatment failure group, median [IQR], read-out: PMB concentration in the ELF): 0.98 µg/mL
level at 96 h ([2]; treatment success group, median [IQR], read-out: PMB concentration in the ELF): 0.84 µg/mL
Cmax ([2]; median and IQR, read-out: plasma Cmax): 7.46 µg/mL
Cmax ([2]; treatment failure group, median [IQR], read-out: Cmax): 11.1 µg/mL
Cmax ([2]; treatment success group, median [IQR], read-out: Cmax): 5.94 µg/mL
